{"source": "patent US20240409576A1", "about": "“-ent-19-norprogesterone, compositions and uses thereof to treat traumatic brain injury (TBI), including concussions-” (Oragenics, Inc., priority 2015, published 2024)", "key": {"[1]": {"system": "rat model of traumatic brain injury (mid-line cortical impact)", "type": "in vivo, Sprague-Dawley rats", "settings": "for Motor function (neuroscore) compared to vehicle-treated rats: 48 h post-injury, 6 h, 24 h"}, "[2]": {"system": "rat model of traumatic brain injury (mid-line cortical impact)", "type": "in vivo, Sprague-Dawley rats", "settings": "48 h post-injury"}, "[3]": {"system": "rat model of traumatic brain injury (mid-line cortical impact)", "type": "in vivo, Sprague-Dawley rats", "settings": "48 h post-injury", "remark": "listed apart in the source"}, "[4]": {"system": "rat model of traumatic brain injury (mid-line cortical impact)", "type": "in vivo, Sprague-Dawley rats"}, "[5]": {"system": "rat model of traumatic brain injury (mid-line cortical impact)", "type": "in vivo, Sprague-Dawley rats", "remark": "listed apart in the source"}, "[6]": {"system": "rat model of traumatic brain injury (mid-line cortical impact)", "type": "in vivo, Sprague-Dawley rats", "settings": "48 h post-injury; for Time spent in thigmotaxia compared to vehicle-treated rats: trial not stated"}, "nasal mucosa of a rat": {"system": "nasal mucosa of a rat", "assay": "Intranasal penetration of Evans Blue labeled PRV002, atomizer vs pipette", "type": "in vivo", "settings": "PRV002 labeled with Evans Blue dye, post-mortem evaluation", "protocol": "The goal of this study is to evaluate the motor and cognitive function of rats treated via intranasal administration with PRV-002, an analogue of the enantiomer of progesterone, following traumatic brain injury. Prior to the initiation of the treatment study, an anatomical evaluation is performed using PRV002 labeled with Evans Blue dye to determine the optimal intranasal/intracerebral penetration of compound using intranasal administration via a miniature atomizer vs. a manual pipette."}, "physchem": {"assay": "physchem", "settings": "aqueous with cosolvent or surfactant or cyclodextrin, thermodynamic from solid"}, "[7]": {"settings": "under certain conditions; cited from earlier work"}, "[8]": {"system": "moderate-to-severe adult TBI", "settings": "progesterone IV for 3 days after injury, cited from earlier work"}, "[9]": {"settings": "trial 1, intraperitoneal 4 mg/kg"}, "[10]": {"settings": "trial 1, intraperitoneal 16 mg/kg"}, "[11]": {"settings": "trial 2, intraperitoneal 4 mg/kg"}, "[12]": {"settings": "trial 2, intraperitoneal 16 mg/kg"}, "[13]": {"settings": "trial not given, intraperitoneal 4 mg/kg"}, "[14]": {"settings": "trial not given, intraperitoneal 16 mg/kg"}, "[15]": {"settings": "48 h post-injury, intranasal 0.05 mg/kg"}}, "note": "Entries after “also recorded” stand apart in the source; their conditions may differ. Read-outs that look alike come from different tables or passages of the source.", "data": [{"smiles": "CC(=O)[C@@H]1CC[C@@H]2[C@H]3CCC4=CC(=O)CC[C@H]4[C@@H]3CC[C@]21C", "note": "(single isomer, unassigned; ent-19) [PRV-002, ent-19-norpregn-4-ene-3,20-dione]", "values": [{"measurement": "Group differences in neuroscore", "setting": "[1]; 24 h post-injury, intraperitoneal 4 mg/kg or 16 mg/kg, sham, vehicle and treated groups", "result": "failed to reveal significant differences; also recorded: no significant group differences"}, {"measurement": "Motor function (neuroscore) compared to vehicle-treated rats", "setting": "[1]; intraperitoneal 4 mg/kg at 15 min", "result": "significant improvement; also recorded: significantly better motor performance; also recorded: significant attenuation of TBI-induced motor function deficits; also recorded: significantly better motor function"}, {"measurement": "Motor function (neuroscore) compared to vehicle-treated rats", "setting": "[1]; intraperitoneal 16 mg/kg at 15 min", "result": "significant improvement; also recorded: significantly better motor performance; also recorded: significant attenuation of TBI-induced motor function deficits; also recorded: significantly better motor function"}, {"measurement": "Morris water maze memory score (cognitive deficits) vs vehicle-treated injured rats", "setting": "[2]; [9]", "result": "significantly attenuated TBI-related cognitive deficits"}, {"measurement": "Morris water maze memory score (cognitive deficits) vs vehicle-treated injured rats", "setting": "[2]; [10]", "result": "significantly attenuated TBI-related cognitive deficits"}, {"measurement": "Morris water maze memory score (cognitive deficits) vs vehicle-treated injured rats", "setting": "[2]; [11]", "result": "significantly attenuated TBI-related cognitive deficits"}, {"measurement": "Morris water maze memory score (cognitive deficits) vs vehicle-treated injured rats", "setting": "[2]; [12]", "result": "significantly attenuated TBI-related cognitive deficits"}, {"measurement": "Morris water maze memory score (cognitive deficits) vs vehicle-treated injured rats", "setting": "[2]; [13]", "result": "ameliorated; also recorded: vehicle-treated injured rats have significantly worse cognitive function; also recorded: amelioration of TBI-induced cognitive deficits"}, {"measurement": "Morris water maze memory score (cognitive deficits) vs vehicle-treated injured rats", "setting": "[2]; [14]", "result": "ameliorated; also recorded: vehicle-treated injured rats have significantly worse cognitive function; also recorded: amelioration of TBI-induced cognitive deficits"}, {"measurement": "Time spent in thigmotaxia vs vehicle-treated injured rats", "setting": "[3]; [9]", "result": "vehicle-treated rats spend significantly more time in thigmotaxia"}, {"measurement": "Time spent in thigmotaxia vs vehicle-treated injured rats", "setting": "[3]; [10]", "result": "vehicle-treated rats spend significantly more time in thigmotaxia"}, {"measurement": "Time spent in thigmotaxia vs vehicle-treated injured rats", "setting": "[3]; [11]", "result": "vehicle-treated rats spend significantly more time in thigmotaxia"}, {"measurement": "Time spent in thigmotaxia vs vehicle-treated injured rats", "setting": "[3]; [12]", "result": "vehicle-treated rats spend significantly more time in thigmotaxia"}, {"measurement": "Time spent in thigmotaxia vs vehicle-treated injured rats", "setting": "[3]; [13]", "result": "ameliorated; also recorded: vehicle-treated injured rats spend significantly more time in thigmotaxia; also recorded: spend less time in the thigmotaxia area"}, {"measurement": "Time spent in thigmotaxia vs vehicle-treated injured rats", "setting": "[3]; [14]", "result": "ameliorated; also recorded: vehicle-treated injured rats spend significantly more time in thigmotaxia; also recorded: spend less time in the thigmotaxia area"}, {"measurement": "Motor function (neuroscore) compared to vehicle-treated rats", "setting": "[4]; 24 h post-injury, intranasal 0.1 mg/kg", "result": "significantly improved motor function"}, {"measurement": "Motor function (neuroscore) compared to vehicle-treated rats", "setting": "[4]; 24 h post-injury, intranasal 0.1 mg/kg, listed as PRV002", "result": "significantly improved"}, {"measurement": "Motor function (neuroscore) compared to vehicle-treated rats", "setting": "[4]; 24 h post-injury, intranasal 4 mg/kg", "result": "significantly improved motor function"}, {"measurement": "Motor function (neuroscore) compared to vehicle-treated rats", "setting": "[4]; 24 h post-injury, intranasal 4 mg/kg, listed as PRV002", "result": "significantly improved"}, {"measurement": "Motor function (neuroscore) compared to vehicle-treated rats", "setting": "[4]; [15]", "result": "significantly better motor function"}, {"measurement": "Motor performance (neuroscore) compared to sham rats", "setting": "[4]; [15]", "result": "significantly worse performance"}, {"measurement": "Motor function (neuroscore) compared to vehicle-treated rats", "setting": "[4]; 48 h post-injury, intranasal 0.05 mg/kg, listed as PRV002", "result": "significantly improved motor function"}, {"measurement": "Motor function (neuroscore) compared to vehicle-treated rats", "setting": "[4]; 48 h post-injury, intranasal 0.1 mg/kg", "result": "significantly better motor function"}, {"measurement": "Motor function (neuroscore) compared to vehicle-treated rats", "setting": "[4]; 48 h post-injury, intranasal 0.1 mg/kg, listed as PRV002", "result": "significantly improved motor function"}, {"measurement": "Motor performance (neuroscore) compared to sham rats", "setting": "[4]; 48 h post-injury, intranasal 1 mg/kg", "result": "significantly worse performance"}, {"measurement": "Motor function (neuroscore) compared to vehicle-treated rats", "setting": "[4]; 48 h post-injury, intranasal 4 mg/kg", "result": "significantly better motor function"}, {"measurement": "Motor function (neuroscore) compared to vehicle-treated rats", "setting": "[4]; 48 h post-injury, intranasal 4 mg/kg, listed as PR V-002", "result": "significantly better motor function"}, {"measurement": "Motor function (neuroscore) compared to vehicle-treated rats", "setting": "[4]; 48 h post-injury, intranasal 4 mg/kg, listed as PRV002", "result": "significantly improved motor function"}, {"measurement": "Motor performance scores (neuroscore) compared to sham rats", "setting": "[4]; rat, in vivo", "result": "not significantly different from sham rats"}, {"measurement": "Cognitive function (post-traumatic memory)", "setting": "[5]; 48 h post-injury/treatment, intranasal 4 mg/kg, trial not stated", "result": "significant improvement in cognitive function"}, {"measurement": "Morris water maze memory score (cognitive performance) compared to all other groups", "setting": "[5]; rat, in vivo", "result": "all groups have significantly lower memory scores than PRV-002 4 mg/kg-treated rats"}, {"measurement": "Morris water maze memory score (cognitive performance) compared to all other groups", "setting": "[5]; trial 1, 48 h post-injury, intranasal 4 mg/kg", "result": "significantly better cognitive performance"}, {"measurement": "Group differences in cognitive performance (Morris water maze memory score)", "setting": "[5]; trial 2, 48 h post-injury, intranasal 0.05, 0.1, 1, 4 mg/kg groups", "result": "significant group differences in cognitive performance are not observed"}, {"measurement": "Group differences in time spent in thigmotaxia", "setting": "[6]; trial 1, intranasal 0.05, 0.1, 1, 4 mg/kg groups", "result": "no significant group differences are observed in time spent in thigmotaxia"}, {"measurement": "Time spent in thigmotaxia compared to vehicle-treated injured rats", "setting": "[6]; trial 2, intranasal 4 mg/kg", "result": "significantly less time in thigmotaxia"}, {"measurement": "Time spent in thigmotaxia compared to sham rats", "setting": "[6]; trial 2, intranasal 005 mg/kg", "result": "significantly more time in thigmotaxia"}, {"measurement": "Time spent in thigmotaxia compared to vehicle-treated rats", "setting": "[6]; intranasal 4 mg/kg", "result": "spent significantly less time in thigmotaxia"}, {"measurement": "Time spent in thigmotaxia compared to vehicle-treated rats", "setting": "[6]; intranasal 4 mg/kg, listed as PRV002", "result": "significantly reduced"}, {"measurement": "Nasal mucosal penetration, miniature atomizer vs manual pipette", "setting": "nasal mucosa of a rat", "result": "clear advantage of the miniature atomizer over the pipette technique"}, {"measurement": "Resultant solution", "setting": "30 mg in 1 ml Solution 1, mix time 60 min", "result": "Hazy"}, {"measurement": "Resultant solution", "setting": "+0.1 ml Solution 1, ~1.1 ml, mix time 120 min", "result": "Hazy"}, {"measurement": "Resultant solution", "setting": "+0.1 ml Solution 1, ~1.2 ml, mix O/N", "result": "Hazy to Clear"}, {"measurement": "solubility", "setting": "physchem", "result": "~23", "unit": "mg/mL"}]}, {"smiles": "CC(=O)[C@@H]1CC[C@@H]2[C@H]3CCC4=CC(=O)CC[C@@]4(C)[C@@H]3CC[C@]21C", "note": "[ent-Progesterone, ent-progesterone]", "values": [{"measurement": "Antioxidant activity relative to racemate", "setting": "[7]", "result": "three times the antioxidant activity of racemate"}]}, {"smiles": "CC(=O)[C@H]1CC[C@H]2[C@@H]3CCC4=CC(=O)CC[C@]4(C)[C@H]3CC[C@]12C", "note": "[progesterone]", "values": [{"measurement": "Mortality rate", "setting": "[8]; control 30.4%", "result": 13.6, "unit": "%"}, {"measurement": "Serious adverse events", "setting": "[8]; data safety monitoring board", "result": "no serious adverse events attributable to progesterone treatment"}]}]}
